Reference: patent US8106055B2, “Substituted amide compounds” (Gruenenthal GmbH, priority 2007, dated 2012)

Experiments:
[1] = molecular target: T1, serotonin (5-HT) reuptake (Rattus norvegicus, UniProt P31652); experiment: Inhibition of serotonin (5HT) reuptake in synaptosomes from rat brain; format: biochemical; details: for 5-HT (inhibition of reuptake of serotonin, % inhibition): test concentration of 10 μM; for inhibition at 10 µM: Table 2, test concentration 10 μM, read-out: 5-HT reuptake
T1 construct: synaptosomes are freshly isolated from areas of the rat brain; from tissue; host or cells: rat brain synaptosomes (P2 fraction)
T1 sequence (P31652 whole entry): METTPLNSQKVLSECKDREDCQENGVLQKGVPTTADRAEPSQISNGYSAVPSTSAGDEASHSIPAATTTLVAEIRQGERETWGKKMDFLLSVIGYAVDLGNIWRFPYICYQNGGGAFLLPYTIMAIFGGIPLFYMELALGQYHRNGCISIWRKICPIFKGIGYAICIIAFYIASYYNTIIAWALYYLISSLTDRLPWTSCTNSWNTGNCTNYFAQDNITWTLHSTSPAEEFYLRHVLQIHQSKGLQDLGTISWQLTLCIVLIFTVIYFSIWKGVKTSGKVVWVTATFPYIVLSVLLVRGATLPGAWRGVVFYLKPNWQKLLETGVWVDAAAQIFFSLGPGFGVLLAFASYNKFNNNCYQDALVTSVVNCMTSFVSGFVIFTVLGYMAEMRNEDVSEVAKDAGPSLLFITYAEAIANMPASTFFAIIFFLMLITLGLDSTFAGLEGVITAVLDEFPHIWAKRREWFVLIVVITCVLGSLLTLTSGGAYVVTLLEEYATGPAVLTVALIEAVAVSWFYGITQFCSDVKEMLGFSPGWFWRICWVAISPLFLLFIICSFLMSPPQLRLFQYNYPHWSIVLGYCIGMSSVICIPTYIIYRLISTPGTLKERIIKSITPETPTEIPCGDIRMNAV
Summary of the method: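 Compounds screened at 10 μM and reported as percent inhibition of serotonin uptake. Uptake measured in a freshly prepared P2 synaptosomal fraction from rat brain.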

[2] = molecular target: T2, bradykinin 1 receptor (B1R) of the rat (Rattus norvegicus, UniProt P97583); experiment: Functional investigation on the rat bradykinin 1 receptor (B1R), Ca2+ FLIPR assay in CHO K1 rB1R cells; format: cell-based; details: test substance 10 μM, Ca2+ FLIPR, CHO K1 rB1R cells; for B1R Ant. r [10 μM] % Inhibition: B1R antagonism rat; for inhibition at 10 µM: CHO-K1, B1R antagonism rat, read-out: B1R Ant. r [10 μM] % Inhibition
T2 construct: expressed in transfected cells; host or cells: CHO K1 cells
T2 sequence (P97583 1-337): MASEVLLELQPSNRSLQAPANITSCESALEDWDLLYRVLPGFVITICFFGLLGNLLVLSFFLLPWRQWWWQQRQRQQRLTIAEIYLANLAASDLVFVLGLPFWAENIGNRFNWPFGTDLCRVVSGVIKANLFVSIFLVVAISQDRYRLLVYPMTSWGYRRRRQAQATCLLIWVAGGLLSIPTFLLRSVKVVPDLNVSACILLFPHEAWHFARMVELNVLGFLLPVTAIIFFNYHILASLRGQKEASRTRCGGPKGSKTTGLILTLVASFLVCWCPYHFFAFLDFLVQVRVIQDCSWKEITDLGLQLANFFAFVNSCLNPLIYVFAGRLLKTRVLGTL
Summary of the method: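 Peak Ca2+-dependent fluorescence in B1R-transfected CHO K1 cells measures antagonism of an EC80 agonist challenge given 10-20 min after compound. Agonist is Lys-Des-Arg9-bradykinin for human, Des-Arg9-bradykinin for rat receptor.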

SMILES	5-HT (inhibition of reuptake of serotonin, % inhibition) [1] [%]	B1R Ant. r [10 μM] % Inhibition [2] [%]	inhibition at 10 µM [1] [%]	inhibition at 10 µM [2] [%]
CN(C)C(c1cccc(F)c1)C1CCC(NC(=O)COCCN(C)S(=O)(=O)c2ccc(OC(F)(F)F)cc2)CC1 (stereo not shown) [Example 246]	91	15	–	–
COc1cc(C)c(S(=O)(=O)N2CCC(OCC(=O)NCCC3CCC(C(c4cccc(F)c4)N(C)C)CC3)C2)c(C)c1C (stereo not shown) [Example 253]	96	18	–	–
Cc1ccc(S(=O)(=O)N(C)CCOCC(=O)NCC2CCC(C(c3cccc(F)c3)N(C)C)CC2)cc1 (stereo not shown) [Example 227]	86	12	–	–
CN(C)C(c1ccccc1)C1CCC(NC(=O)COCCN(C)S(=O)(=O)c2c(Cl)cc(Cl)cc2Cl)C1 (stereo not shown) [Example 615, N-[3-(dimethylaminophenylmethyl)-cyclopentyl]-2-{2-[(2,4,6-trichlorobenzenesulfonyl)-methylamino]-ethoxy}-acetamide]	–	–	81	26
CN(C)C(c1cccc(F)c1)C1CCC(NC(=O)COC2CCN(S(=O)(=O)c3ccc(Cl)cc3)C2)CC1 (stereo not shown) [Example 204]	86	−13	–	–
Cc1cc(C)c(S(=O)(=O)N2CCC(OCC(=O)NCCC3CCC(C(c4cccc(F)c4)N(C)C)CC3)C2)c(C)c1 (stereo not shown) [Example 264]	82	59	–	–
COc1cc(C)c(S(=O)(=O)N2CCN(CCOCC(=O)NC3CCC(C(c4ccc(F)cc4)N(C)C)CC3)CC2)c(C)c1C (stereo not shown) [Example 222]	92	10	–	–
CN(C)C(c1ccc(Cl)cc1)C1CCC(CNC(=O)COC2CCCCC2N(C)S(=O)(=O)c2ccc(Cl)c(Cl)c2)CC1 (stereo not shown) [Example 269]	87	−3	–	–
CN(C)C(c1cccc(F)c1)C1CCC(CCNC(=O)COC2CCN(S(=O)(=O)c3ccc(Cl)cc3)C2)CC1 (stereo not shown) [Example 247]	89	8	–	–
CN(C)C(c1cccc(F)c1)C1CCC(NC(=O)COC2CCCN(S(=O)(=O)c3ccccc3)C2)CC1 (stereo not shown) [Example 277]	93	4	–	–
CN(C)C(c1cccc(F)c1)C1CCC(CNC(=O)COCC2CCCN(S(=O)(=O)c3ccccc3)C2)CC1 (stereo not shown) [Example 220]	95	7	–	–
CN(C)C(c1cccc(F)c1)C1CCC(CNC(=O)COC2CCN(S(=O)(=O)c3ccc(F)cc3)C2)CC1 (stereo not shown) [Example 275]	80	17	–	–
COc1cc(C)c(S(=O)(=O)N(CCOCC(=O)NCC2CCC(C(c3ccccc3)N(C)C)CC2)Cc2ccccc2)c(C)c1C (stereo not shown) [Example 201]	89	7	–	–
COc1cc(C)c(S(=O)(=O)N(C)CCOCC(=O)NCC2CCC(C(c3cccc(F)c3)N(C)C)CC2)c(C)c1 (stereo not shown) [Example 248]	90	102	–	–
COc1ccc(S(=O)(=O)N2CCCCC2COCC(=O)NC2CCC(C(c3cccs3)N(C)C)CC2)cc1OC (stereo not shown) [Example 261]	85	−3	–	–
CN(C)C(c1ccccc1)C1CCC(CNC(=O)COC2CCN(S(=O)(=O)c3ccc(F)cc3)C2)CC1 (stereo not shown) [Example 219]	96	14	–	–
COc1cc(C)c(S(=O)(=O)N2CCC(OCC(=O)NC3CCC(C(c4cccc(F)c4)N(C)C)CC3)C2)c(C)c1 (stereo not shown) [Example 251]	98	87	–	–
COc1cc(C)c(S(=O)(=O)N2CCC(OCC(=O)NCC3CCC(C(c4cccc(F)c4)N(C)C)CC3)C2)c(C)c1C (stereo not shown) [Example 252]	93	4	–	–

SMILES	5-HT (inhibition of reuptake of serotonin, % inhibition) [1] [%]	B1R Ant. r [10 μM] % Inhibition [2] [%]	inhibition at 10 µM [1] [%]	inhibition at 10 µM [2] [%]
CN(C)C(c1ccccc1)C1CCC(NC(=O)COC2CCCN(S(=O)(=O)c3c(Cl)cc(Cl)cc3Cl)C2)CC1 (stereo not shown) [Example 608, N-[4-(dimethylaminophenylmethyl)-cyclohexyl]-2-[1-(2,4,6-trichlorobenzenesulfonyl)-piperidin-3-yloxy]-acetamide]	–	–	81	34
CN(C)C(c1cccc(F)c1)C1CCC(CCNC(=O)COCC2CCCN2S(=O)(=O)c2ccc(Cl)c(Cl)c2)CC1 (stereo not shown) [Example 202]	98	−15	–	–
CN(C)C(c1ccc(F)cc1)C1CCC(CNC(=O)COCC2CCCN2S(=O)(=O)c2ccc(Cl)c(Cl)c2)CC1 (stereo not shown) [Example 267]	94	−13	–	–
Cc1ccc(S(=O)(=O)N(C)CCOCC(=O)NCCC2CCC(C(c3cccc(F)c3)N(C)C)CC2)cc1 (stereo not shown) [Example 240]	87	−14	–	–
COc1ccc(S(=O)(=O)N2CCCCC2CCOCC(=O)NCCC2CCC(C(c3cccc(F)c3)N(C)C)CC2)cc1 (stereo not shown) [Example 213]	98	49	–	–
CN(C)C(c1ccccc1)C1CCC(NC(=O)COC2CCN(S(=O)(=O)c3c(Cl)cc(Cl)cc3Cl)C2)CC1 (stereo not shown) [Example 609, N-[4-(dimethylaminophenylmethyl)-cyclohexyl]-2-[1-(2,4,6-trichlorobenzenesulfonyl)-pyrrolidin-3-yloxy]-acetamide]	–	–	86	32
COc1cc(C)c(S(=O)(=O)N(C)CCOCC(=O)NC2CCC(C(c3cccc(F)c3)N(C)C)CC2)c(C)c1 (stereo not shown) [Example 228]	85	99	–	–
CN(CCOCC(=O)NC1CCC(C(c2ccccc2)N2CCCC2)CC1)S(=O)(=O)c1c(Cl)cc(Cl)cc1Cl (stereo not shown) [Example 606, 2-{2-[methyl-(2,4,6-trichlorobenzenesulfonyl)-amino]-ethoxy}-N-[4-(phenylpyrrolidin-1-yl-methyl)-cyclohexyl]-acetamide]	–	–	85	37
COc1ccc(S(=O)(=O)N2CCCCC2CCOCC(=O)NC2CCC(C(c3ccc(F)cc3)N(C)C)CC2)cc1 (stereo not shown) [Example 212]	92	41	–	–
CCN(CCOCC(=O)NCC1CCC(C(c2ccccc2)N(C)C)CC1)S(=O)(=O)c1c(C)cc(OC)c(C)c1C (stereo not shown) [Example 231]	83	29	–	–
COc1cc(C)c(S(=O)(=O)N2CCN(CCOCC(=O)NCC3CCC(C(c4cccc(F)c4)N(C)C)CC3)CC2)c(C)c1C (stereo not shown) [Example 223]	96	−5	–	–
CN(C)C(c1cccs1)C1CCC(CCNC(=O)COC2CCN(S(=O)(=O)c3ccccc3)CC2)CC1 (stereo not shown) [Example 230]	94	−1	–	–
Cc1cc(C)c(S(=O)(=O)N(C)CCOCC(=O)NC2CCC(C(c3cccs3)N(C)C)CC2)c(C)c1 (stereo not shown) [Example 235]	86	−8	–	–
COc1ccc(S(=O)(=O)N2CCCC2COCC(=O)NC2CCC(C(c3cccc(F)c3)N(C)C)CC2)cc1 (stereo not shown) [Example 268]	92	25	–	–
CN(C)C(c1cccc(F)c1)C1CCC(NC(=O)COCCN(C)S(=O)(=O)c2c(Cl)cc(Cl)cc2Cl)CC1 (stereo not shown) [Example 208]	93	25	–	–
COc1ccc(S(=O)(=O)N2CCCCC2COCC(=O)NC2CCC(C(c3cccs3)N(C)C)CC2)cc1 (stereo not shown) [Example 243]	73	27	–	–
Cc1ccc(S(=O)(=O)N(C)CCOCC(=O)NCC2CCC(C(c3ccc(Cl)cc3)N(C)C)CC2)cc1 (stereo not shown) [Example 273]	91	37	–	–
